Test: Whole body scintigraphy biodistribution after IV, IM, SC injection in dogs (Example 4)
Type: in vivo
Conditions: dog
Description: Three different studies were performed. In a first study, the biodistribution of intravenously administrated equine peripheral blood-derived MSCs (ePB-MSCs) was evaluated in four dogs. In the second study, the biodistribution of intramuscularly and subcutaneously administrated ePB-MSCs was evaluated in four dogs. Finally, in a third study, the biodistribution of a higher dose of ePB-MSCs following intravenous administration was evaluated in three dogs.
Four healthy adult research dogs were included in the two first studies; three dogs from the second study were re-used for the third study. All dogs were purpose bred adult beagles (16-23 months). Two males and two females were included in the first two studies and one male and two female dogs were included in the third study. The dogs were housed in groups of 2, in a pen of 4 by 4 by 2 m (L×W×H) so permanent visual, olfactorial, tactile and auditive contact between dogs was possible. Toys were provided for the dogs to play with in their pen. Cleaning of the dog pens was performed daily. The floor was covered with wood shavings to improve lying comfort for the dogs. The animals were let out in dog runs to play and run for minimal 1 hour a day. After the study this minimal time was increased depending on the need of the dogs.
In the first study, each dog received two intravenous injections; first the dogs were injected with the control product: freshly eluted ^99mTc dissolved in DMEM and at least 7 days later they received a second injection with ^99mTc-labeled ePB-MSCs. For the second study, 4 injections were administered to each dog. The dogs first received an IM injection with the control product, next a SC with the control product, then an IM injection with the ^99mTc-labeled ePB-MSCs and finally a SC administration of the ^99mTc-labeled ePB-MSCs. At least 7 days separated each injection. In the third study, the three dogs received a single IV injection with ^99mTc-labeled ePB-MSCs.
The dogs were put under general anesthesia and positioned in sternal recumbency on the gamma camera before each injection. To obtain general anesthesia, the dogs were first sedated with dexmedetomidine (12-25 μg/kg IM), next induction was obtained with propofol (dosage on effect) and anesthesia was maintained with isoflurane 1.2-1.4% (on effect) in 100% oxygen following endotracheal intubation. The intravenous injection was administered through a 22-gauge catheter in one of the cephalic veins, the intramuscular injection was performed in the left quadriceps muscle and the subcutaneous injection was administered at the back of the neck.
A two-headed gamma camera, equipped with low energy high resolution collimators (GCA 7200 A; Toshiba) was used for the scintigraphic investigation. The whole body scan was obtained with the detectors of the SPECT scanner moving simultaneous dorsally and ventrally from head to tail of the dog over 10 minutes. All dogs were kept under general anesthesia during all the acquisitions. For all 3 studies, data collection of the first hour consisted of 6 successive acquisitions of each 10 minutes. The start of the first acquisition was simultaneous with injection of the radioactive compound and the dog remained in the same position for all 6 scans. Next, in the first study, total body scans (each lasting 10 minutes) were performed at 2 h, 4 h, 8 h, 12 h, 24 h and 36 h after placebo control and labeled ePB-MSCs administration using propofol (dosage on effect). For the second and the third study, 6 successive 10 minutes' total body scans performed during the first hour after injection were followed by total body scans (each lasting 10 minutes) at 6 h and 24 h after each injection. For all studies, a syringe with a known amount of radioactivity to calculate % injected dose (ID), was simultaneous scanned with the dog. Care was taken for the dog's re-positioning on the table, to avoid too much spatial deviation on the scans following the first hour scans. […]

Structure (SMILES): [O]=[99Tc](=[O])(=[O])[O-] [control product, ^99mTc Pertechnetate]
- percentage of injected dose at injection site (IM, 10 min): 29.49%
- percentage of injected dose in bladder (IM, 10 min): 0.13%
- percentage of injected dose in heart (IM, 10 min): 0.45%
- percentage of injected dose in left salivary gland (IM, 10 min): 0.02%
- percentage of injected dose in lung (IM, 10 min): 1.06%
- percentage of injected dose in right salivary gland (IM, 10 min): 0.01%
- percentage of injected dose in stomach (IM, 10 min): 1.62%
- percentage of injected dose in thyroid (IM, 10 min): 0.05%
- percentage of injected dose at injection site (IM, 60 min): 3.63%
- percentage of injected dose in bladder (IM, 60 min): 3.51%
- percentage of injected dose in heart (IM, 60 min): 2.46%
- percentage of injected dose in left salivary gland (IM, 60 min): 1.03%
- percentage of injected dose in lung (IM, 60 min): 6.92%
- percentage of injected dose in right salivary gland (IM, 60 min): 0.99%
- percentage of injected dose in stomach (IM, 60 min): 17.36%
- percentage of injected dose in thyroid (IM, 60 min): 1.10%
- percentage of injected dose at injection site (IM, 6 hours): 0.19%
- percentage of injected dose in bladder (IM, 6 hours): 4.77%
- percentage of injected dose in heart (IM, 6 hours): 1.45%
- percentage of injected dose in left salivary gland (IM, 6 hours): 1.84%
- percentage of injected dose in lung (IM, 6 hours): 4.41%
- percentage of injected dose in right salivary gland (IM, 6 hours): 1.60%
- percentage of injected dose in stomach (IM, 6 hours): 17.25%
- percentage of injected dose in thyroid (IM, 6 hours): 1.15%
- percentage of injected dose at injection site (IM, 24 hours): 0.12%
- percentage of injected dose in bladder (IM, 24 hours): 5.08%
- percentage of injected dose in heart (IM, 24 hours): 0.69%
- percentage of injected dose in left salivary gland (IM, 24 hours): 2.47%
- percentage of injected dose in lung (IM, 24 hours): 2.14%
- percentage of injected dose in right salivary gland (IM, 24 hours): 2.09%
- percentage of injected dose in stomach (IM, 24 hours): 9.36%
- percentage of injected dose in thyroid (IM, 24 hours): 0.57%
- percentage of injected dose in bladder (IV, 10 min): 0.63%
- percentage of injected dose in heart (IV, 10 min): 2.79%
- percentage of injected dose in left salivary gland (IV, 10 min): 0.33%
- percentage of injected dose in liver (IV, 10 min): 2.93%
- percentage of injected dose in lung (IV, 10 min): 3.73%
- percentage of injected dose in right salivary gland (IV, 10 min): 0.33%
- percentage of injected dose in stomach (IV, 10 min): 4.84%
- percentage of injected dose in thyroid (IV, 10 min): 0.41%
- percentage of injected dose in bladder (IV, 60 min): 1.93%
- percentage of injected dose in heart (IV, 60 min): 1.61%
- percentage of injected dose in left salivary gland (IV, 60 min): 0.77%
- percentage of injected dose in liver (IV, 60 min): 2.07%
- percentage of injected dose in lung (IV, 60 min): 2.62%
- percentage of injected dose in right salivary gland (IV, 60 min): 0.72%
- percentage of injected dose in stomach (IV, 60 min): 9.77%
- percentage of injected dose in thyroid (IV, 60 min): 0.61%
- percentage of injected dose in bladder (IV, 6 hours): 2.42%
- percentage of injected dose in heart (IV, 6 hours): 1.45%
- percentage of injected dose in left salivary gland (IV, 6 hours): 1.31%
- percentage of injected dose in liver (IV, 6 hours): 1.73%
- percentage of injected dose in lung (IV, 6 hours): 1.97%
- percentage of injected dose in right salivary gland (IV, 6 hours): 0.88%
- percentage of injected dose in stomach (IV, 6 hours): 8.98%
- percentage of injected dose in thyroid (IV, 6 hours): 0.61%
- percentage of injected dose in bladder (IV, 24 hours): 2.71%
- percentage of injected dose in heart (IV, 24 hours): 0.54%
- percentage of injected dose in left salivary gland (IV, 24 hours): 1.34%
- percentage of injected dose in liver (IV, 24 hours): 0.99%
- percentage of injected dose in lung (IV, 24 hours): 0.77%
- percentage of injected dose in right salivary gland (IV, 24 hours): 0.98%
- percentage of injected dose in stomach (IV, 24 hours): 5.02%
- percentage of injected dose in thyroid (IV, 24 hours): 0.24%
- percentage of injected dose at injection site (SC, 10 min): 27.27%
- percentage of injected dose in bladder (SC, 10 min): 0.13%
- percentage of injected dose in heart (SC, 10 min): 0.24%
- percentage of injected dose in left salivary gland (SC, 10 min): 0.12%
- percentage of injected dose in lung (SC, 10 min): 0.92%
- percentage of injected dose in right salivary gland (SC, 10 min): 0.13%
- percentage of injected dose in stomach (SC, 10 min): 0.53%
- percentage of injected dose in thyroid (SC, 10 min): 0.00%
- percentage of injected dose at injection site (SC, 60 min): 17.57%
- percentage of injected dose in bladder (SC, 60 min): 2.29%
- percentage of injected dose in heart (SC, 60 min): 1.61%
- percentage of injected dose in left salivary gland (SC, 60 min): 0.45%
- percentage of injected dose in lung (SC, 60 min): 4.86%
- percentage of injected dose in right salivary gland (SC, 60 min): 0.45%
- percentage of injected dose in stomach (SC, 60 min): 9.24%
- percentage of injected dose in thyroid (SC, 60 min): 0.00%
- percentage of injected dose at injection site (SC, 6 hours): 0.00%
- percentage of injected dose in bladder (SC, 6 hours): 2.75%
- percentage of injected dose in heart (SC, 6 hours): 1.61%
- percentage of injected dose in left salivary gland (SC, 6 hours): 1.44%
- percentage of injected dose in lung (SC, 6 hours): 4.57%
- percentage of injected dose in right salivary gland (SC, 6 hours): 1.33%
- percentage of injected dose in stomach (SC, 6 hours): 14.37%
- percentage of injected dose in thyroid (SC, 6 hours): 0.96%
- percentage of injected dose at injection site (SC, 24 hours): 0.00%
- percentage of injected dose in bladder (SC, 24 hours): 3.75%
- percentage of injected dose in heart (SC, 24 hours): 0.70%
- percentage of injected dose in left salivary gland (SC, 24 hours): 2.67%
- percentage of injected dose in lung (SC, 24 hours): 2.01%
- percentage of injected dose in right salivary gland (SC, 24 hours): 2.81%
- percentage of injected dose in stomach (SC, 24 hours): 7.32%
- percentage of injected dose in thyroid (SC, 24 hours): 0.61%
- organ with the highest uptake (all three injection routes, progressive increase until 4 to 6 hours): stomach
- organs with radioactivity uptake (intramuscular and subcutaneous administration): heart, lung, stomach, bladder, thyroid and salivary glands
- organs in which radioactivity accumulated (intravenous injection): heart, lung, liver, stomach, bladder, thyroid and salivary glands
